Measured values reported in patent US20220401439A1, “INTRANASAL PHARMACEUTICAL COMPOSITIONS OF CGRP INHIBITORS” (Biohaven Pharmaceutical Holding Company Ltd., priority 2019, published 2022).
Marks after values point to notes of the source that are not given here.

Columns and labels:
[1] = pKa of drug substance; type: physicochemical; conditions: mono-hydrochloride salt form
[2] = system: patients receiving acute treatment of migraine; experiment: Phase 2/3 trial BHV3500-201 (Study 201), efficacy in acute treatment of migraine; type: in vivo, human; conditions: for Pain relief at 2 hours postdose, Stratified Percentage Difference (Zavegepant-Placebo): stratified by prophylactic migraine medication use; for Return to normal function at 30 minutes postdose, Stratified Percentage Difference (Zavegepant-Placebo) / Return to normal function at 60 minutes postdose, Stratified Percentage Difference (Zavegepant-Placebo) / Return to normal function at 2 hours postdose, Stratified Percentage Difference (Zavegepant-Placebo): subjects with functional disability at onset; for Pain relapse from 2 to 48 hours postdose, Stratified Percentage Difference (Zavegepant-Placebo): subjects with pain freedom at 2 hours postdose
[3] = 5 mg single dose, mITT subjects, Overall
[4] = 5 mg single dose, mITT, Prophylactic migraine medication use: No
[5] = 5 mg single dose, mITT, Prophylactic migraine medication use: Yes
[6] = 10 mg single dose, mITT subjects, Overall
[7] = 10 mg single dose, mITT, Prophylactic migraine medication use: No
[8] = 10 mg single dose, mITT, Prophylactic migraine medication use: Yes
[9] = 10 mg single intranasal dose, p < 0.05
[10] = 20 mg single dose, mITT subjects, Overall
[11] = 20 mg single dose, mITT, Prophylactic migraine medication use: No
[12] = 20 mg single dose, mITT, Prophylactic migraine medication use: Yes
[13] = 20 mg single intranasal dose, p < 0.05
[14] = zavegepant 5 mg vs placebo, mITT, CMH weighting
[15] = zavegepant 5 mg vs placebo, CMH weighting
[16] = zavegepant 5 mg vs placebo, subjects with symptom present at onset, CMH weighting
[17] = zavegepant 5 mg, mITT subjects with functional disability at on-study migraine attack onset
[18] = zavegepant 5 mg, mITT subjects with symptom present at on-study migraine attack onset
[19] = zavegepant 10 mg vs placebo, mITT, CMH weighting
[20] = zavegepant 10 mg vs placebo, CMH weighting

Cc1cc(C[C@@H](NC(=O)N2CCC(c3cc4ccccc4[nH]c3=O)CC2)C(=O)N2CCN(C3CCN(C)CC3)CC2)cc2cn[nH]c12 [Zavegepant, (R)—N-(3-(7-methyl-1H-indazol-5-yl)-1-(4-(1-methylpiperidin-4-yl)piperazin-1-yl)-1-oxopropan-2-yl)-4-(2-oxo-1,2-dihydroquinolin-3-yl)piperidine-1-carboxamide]
pKa [1]: 4.8 | Pain Relief at 15 Minutes Post-Dose, (%) of subjects [2, 3]: (14.2) % | Pain Relief at 15 Minutes Post-Dose, n/N [2, 3]: 55/387 | Pain Relief at 15 Minutes Post-Dose, Stratified percentage difference (BHV-3500-Placebo) ([2]; 5 mg single dose, mITT subjects, Overall, CMH weighting): 4.2% | Pain Relief at 15 Minutes Post-Dose, (%) of subjects [2, 4]: (14.7) % | Pain Relief at 15 Minutes Post-Dose, Percentage difference (BHV-3500-Placebo) [2, 4]: 4.6% | Pain Relief at 15 Minutes Post-Dose, n/N [2, 4]: 49/333 | Pain Relief at 15 Minutes Post-Dose, (%) of subjects [2, 5]: (11.1) % | Pain Relief at 15 Minutes Post-Dose, Percentage difference (BHV-3500-Placebo) [2, 5]: 1.9% | Pain Relief at 15 Minutes Post-Dose, n/N [2, 5]: 8/54 | 2 Hour Endpoint Freedom from MBS (Most Bothersome Symptom) ([2]; 5 mg single intranasal dose): 39.0% | 2 Hour Endpoint Pain Freedom ([2]; 5 mg single intranasal dose): 19.6% | Pain Relief at 15 Minutes Post-Dose, (%) of subjects [2, 6]: (18.2) % | Pain Relief at 15 Minutes Post-Dose, n/N [2, 6]: 71/331 | Pain Relief at 15 Minutes Post-Dose, Stratified percentage difference (BHV-3500-Placebo) ([2]; 10 mg single dose, mITT subjects, Overall, CMH weighting): 8.2% | Pain Relief at 15 Minutes Post-Dose, (%) of subjects [2, 7]: (17.3) % | Pain Relief at 15 Minutes Post-Dose, Percentage difference (BHV-3500-Placebo) [2, 7]: 7.2% | Pain Relief at 15 Minutes Post-Dose, n/N [2, 7]: 59/341 | Pain Relief at 15 Minutes Post-Dose, (%) of subjects [2, 8]: (24.0) % | Pain Relief at 15 Minutes Post-Dose, Percentage difference (BHV-3500-Placebo) [2, 8]: 14.7% | Pain Relief at 15 Minutes Post-Dose, n/N [2, 8]: 12/50 | 2 Hour Endpoint Freedom from MBS (Most Bothersome Symptom) [2, 9]: 41.9%* | 2 Hour Endpoint Pain Freedom [2, 9]: 22.5%* | return to normal function ([2]; 20 mg): as early as 30 minutes | Pain Relief at 15 Minutes Post-Dose, (%) of subjects [2, 10]: (14.7) % | Pain Relief at 15 Minutes Post-Dose, n/N [2, 10]: 59/402 | Pain Relief at 15 Minutes Post-Dose, Stratified percentage difference (BHV-3500-Placebo) ([2]; 20 mg single dose, mITT subjects, Overall, CMH weighting): 4.7% | Pain Relief at 15 Minutes Post-Dose, (%) of subjects [2, 11]: (13.3) % | Pain Relief at 15 Minutes Post-Dose, Percentage difference (BHV-3500-Placebo) [2, 11]: 3.2% | Pain Relief at 15 Minutes Post-Dose, n/N [2, 11]: 46/345 | Pain Relief at 15 Minutes Post-Dose, (%) of subjects [2, 12]: (22.3) % | Pain Relief at 15 Minutes Post-Dose, Percentage difference (BHV-3500-Placebo) [2, 12]: 13.5% | Pain Relief at 15 Minutes Post-Dose, n/N [2, 12]: 13/57 | 2 Hour Endpoint Freedom from MBS (Most Bothersome Symptom) [2, 13]: 42.5%* | 2 Hour Endpoint Pain Freedom [2, 13]: 23.1%* | onset of pain relief ([2]; 5, 10, and 20 mg single dose, stratified CMH tests, mITT subjects): pain relief as early as 15 minutes post-dose | durability of benefits (sustained pain freedom and pain relief 2 to 24 and 2 to 48 hours) ([2]; 5, 10 and 20 mg (pain relief 2 to 48: 5 and 10 mg), nominal p<0.05): durable and sustained without rescue medication out to 48 hours | pain relief and return to normal function at 2 hours ([2]; 10 and 20 mg doses): therapeutic benefits | comparison to placebo on co-primary endpoints of pain freedom and freedom from MBS at 2 hours ([2]; 10 and 20 mg, single dose, p<0.05): statistically superior | comparison to placebo on multiple secondary endpoints demonstrating early activity ([2]; nominal p<0.05): superior to placebo | Pain relief at 2 hours postdose, n/N (%) ([2]; zavegepant 5 mg intranasal single dose, mITT subjects): (57.9) % | Pain relief at 30 minutes postdose, Stratified Percentage Difference (Zavegepant-Placebo) [2, 14]: 1.9% | Pain relief at 60 minutes postdose, Stratified Percentage Difference (Zavegepant-Placebo) [2, 14]: 5.1% | Rescue medication use within 24 hours postdose, Stratified Percentage Difference (Zavegepant-Placebo) [2, 14]: −2.4% | Sustained pain freedom from 2 to 24 hours postdose, Stratified Percentage Difference (Zavegepant-Placebo) [2, 14]: 5.3% | Sustained pain freedom from 2 to 48 hours postdose, Stratified Percentage Difference (Zavegepant-Placebo) [2, 14]: 5.5% | Sustained pain relief from 2 to 24 hours postdose, Stratified Percentage Difference (Zavegepant-Placebo) [2, 14]: 8.0% | Sustained pain relief from 2 to 48 hours postdose, Stratified Percentage Difference (Zavegepant-Placebo) [2, 14]: 7.4% | Pain relief at 2 hours postdose, Stratified Percentage Difference (Zavegepant-Placebo) [2, 14]: 4.2% | Return to normal function at 30 minutes postdose, Stratified Percentage Difference (Zavegepant-Placebo) [2, 15]: 3.4% | Return to normal function at 60 minutes postdose, Stratified Percentage Difference (Zavegepant-Placebo) [2, 15]: 5.5% | Return to normal function at 2 hours postdose, Stratified Percentage Difference (Zavegepant-Placebo) [2, 15]: 4.3% | Pain relapse from 2 to 48 hours postdose, Stratified Percentage Difference (Zavegepant-Placebo) [2, 15]: −18.9% | Nausea freedom at 2 hours postdose, Stratified Percentage Difference (Zavegepant-Placebo) [2, 16]: 1.8% | Phonophobia freedom at 2 hours postdose, Stratified Percentage Difference (Zavegepant-Placebo) [2, 16]: 10.1% | Photophobia freedom at 2 hours postdose, Stratified Percentage Difference (Zavegepant-Placebo) [2, 16]: 4.6% | Pain relief at 30 minutes postdose, n/N (%) ([2]; zavegepant 5 mg, mITT subjects): (26.6) % | Pain relief at 60 minutes postdose, n/N (%) ([2]; zavegepant 5 mg, mITT subjects): (47.0) % | Rescue medication use within 24 hours postdose, n/N (%) ([2]; zavegepant 5 mg, mITT subjects): (24.9) % | Sustained pain freedom from 2 to 24 hours postdose, n/N (%) ([2]; zavegepant 5 mg, mITT subjects): (14.2) % | Sustained pain freedom from 2 to 48 hours postdose, n/N (%) ([2]; zavegepant 5 mg, mITT subjects): (12.9) % | Sustained pain relief from 2 to 24 hours postdose, n/N (%) ([2]; zavegepant 5 mg, mITT subjects): (43.7) % | Sustained pain relief from 2 to 48 hours postdose, n/N (%) ([2]; zavegepant 5 mg, mITT subjects): (40.1) % | Return to normal function at 30 minutes postdose, n/N (%) [2, 17]: (8.8) % | Return to normal function at 60 minutes postdose, n/N (%) [2, 17]: (22.6) % | Return to normal function at 2 hours postdose, n/N (%) [2, 17]: (31.7) % | Pain relapse from 2 to 48 hours postdose, n/N (%) ([2]; zavegepant 5 mg, mITT subjects with pain freedom at 2 hours postdose): (31.6) % | Nausea freedom at 2 hours postdose, n/N (%) [2, 18]: (53.2) % | Phonophobia freedom at 2 hours postdose, n/N (%) [2, 18]: (44.2) % | Photophobia freedom at 2 hours postdose, n/N (%) [2, 18]: (35.0) % | Pain relief at 2 hours postdose, n/N (%) ([2]; zavegepant 10 mg intranasal single dose, mITT subjects): (60.6) % | Pain relief at 30 minutes postdose, Stratified Percentage Difference (Zavegepant-Placebo) [2, 19]: 5.3% | Pain relief at 60 minutes postdose, Stratified Percentage Difference (Zavegepant-Placebo) [2, 19]: 4.2% | Rescue medication use within 24 hours postdose, Stratified Percentage Difference (Zavegepant-Placebo) [2, 19]: −1.1% | Sustained pain freedom from 2 to 24 hours postdose, Stratified Percentage Difference (Zavegepant-Placebo) [2, 19]: 6.1% | Sustained pain freedom from 2 to 48 hours postdose, Stratified Percentage Difference (Zavegepant-Placebo) [2, 19]: 6.3% | Sustained pain relief from 2 to 24 hours postdose, Stratified Percentage Difference (Zavegepant-Placebo) [2, 19]: 6.8% | Sustained pain relief from 2 to 48 hours postdose, Stratified Percentage Difference (Zavegepant-Placebo) [2, 19]: 7.0% | Pain relief at 2 hours postdose, Stratified Percentage Difference (Zavegepant-Placebo) [2, 19]: 7.1% | Return to normal function at 30 minutes postdose, Stratified Percentage Difference (Zavegepant-Placebo) [2, 20]: 2.1% | Return to normal function at 60 minutes postdose, Stratified Percentage Difference (Zavegepant-Placebo) [2, 20]: 1.8% | Return to normal function at 2 hours postdose, Stratified Percentage Difference (Zavegepant-Placebo) [2, 20]: 7.1% | Pain relapse from 2 to 48 hours postdose, Stratified Percentage Difference (Zavegepant-Placebo) [2, 20]: −17.0% | Nausea freedom at 2 hours postdose, Stratified Percentage Difference (Zavegepant-Placebo) ([2]; zavegepant 10 mg vs placebo, subjects with symptom present at onset, CMH weighting): 2.9%
